Source: patent US9738634B2, “Heterocyclic amide compound and herbicide” (SYNGENTA PARTICIPATIONS AG, priority 2013, dated 2017)

Assays:
Format in all cases: in vivo
Conditions in all cases: treatment dosage 320 g/ha
barnyard grass [1] = assay: Test Example 1: weedkilling efficacy, preemergent weed treatment in the submerged state; A: barnyard grass
In short: (§1)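 Pre-emergence application onto floodwater (4 cm, alluvial soil) on the day of sowing, dose expressed as g/ha from diluted emulsion formulation. Weeds sown with 2.5-leaf transplanted rice as crop; plants held at 25–30 °C in greenhouse and scored against assessment criteria after 3 weeks.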

bulrush [2] = assay: Test Example 1: weedkilling efficacy, preemergent weed treatment in the submerged state; B: bulrush
In short: as §1

oval-leafed pondweed [3] = assay: Test Example 1: weedkilling efficacy, preemergent weed treatment in the submerged state; C: oval-leafed pondweed
In short: as §1

transplanted rice = assay: Test Example 1: preemergent weed treatment in the submerged state, effect on crop; a: transplanted rice
In short: as §1

barnyard grass [4] = assay: Test Example 2: weedkilling efficacy, growth period weed treatment in the submerged state; A: barnyard grass
In short: (§2)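 Weeds treated at the 1-2 leaf stage by application of diluted emulsion onto floodwater (4 cm depth, alluvial soil) at specified g/ha. Grown in greenhouse at 25 to 30° C; herbicidal effect rated three weeks after treatment.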

bulrush [5] = assay: Test Example 2: weedkilling efficacy, growth period weed treatment in the submerged state; B: bulrush
In short: as §2

oval-leafed pondweed [6] = assay: Test Example 2: weedkilling efficacy, growth period weed treatment in the submerged state; C: oval-leafed pondweed
In short: as §2

crabgrass [7] = assay: Test Example 3: weedkilling efficacy through soil treatment; D: crabgrass
In short: (§3)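 Crop and weed responses were judged three weeks after a uniform surface spray of the water-diluted emulsion at the given g/ha rate. Seeds sat beneath about 1.5 cm of sterilized diluvial soil, and boxes stood in a greenhouse at 25 to 30° C.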

green foxtail [8] = assay: Test Example 3: weedkilling efficacy through soil treatment; E: green foxtail
In short: as §3

barnyard grass [9] = assay: Test Example 3: weedkilling efficacy through soil treatment; F: barnyard grass
In short: as §3

wild oat [10] = assay: Test Example 3: weedkilling efficacy through soil treatment; G: wild oat
In short: as §3

black-grass [11] = assay: Test Example 3: weedkilling efficacy through soil treatment; H: black-grass
In short: as §3

Italian ryegrass [12] = assay: Test Example 3: weedkilling efficacy through soil treatment; I: Italian ryegrass
In short: as §3

common wind-grass [13] = assay: Test Example 3: weedkilling efficacy through soil treatment; J: common wind-grass
In short: as §3

Indian mallow [14] = assay: Test Example 3: weedkilling efficacy through soil treatment; K: Indian mallow
In short: as §3

redroot pigweed [15] = assay: Test Example 3: weedkilling efficacy through soil treatment; L: redroot pigweed
In short: as §3

fig-leafed goosefoot [16] = assay: Test Example 3: weedkilling efficacy through soil treatment; M: fig-leafed goosefoot
In short: as §3

chickweed [17] = assay: Test Example 3: weedkilling efficacy through soil treatment; N: chickweed
In short: as §3

birds-eye speedwell [18] = assay: Test Example 3: weedkilling efficacy through soil treatment; p: birds-eye speedwell
In short: as §3

directly sown rice [19] = assay: Test Example 3: soil treatment, effect on crop; b: directly sown rice
In short: as §3

corn [20] = assay: Test Example 3: soil treatment, effect on crop; c: corn
In short: as §3

soybean [21] = assay: Test Example 3: soil treatment, effect on crop; d: soybean
In short: as §3

wheat [22] = assay: Test Example 3: soil treatment, effect on crop; e: wheat
In short: as §3

beet [23] = assay: Test Example 3: soil treatment, effect on crop; f: beet
In short: as §3

rapeseed [24] = assay: Test Example 3: soil treatment, effect on crop; g: rapeseed
In short: as §3

crabgrass [25] = assay: Test Example 4: weedkilling efficacy by foliar treatment; D: crabgrass
In short: (§4)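 Seeds are spot-sown into sterilized diluvial soil and covered with about 1.5 cm of soil. After 14 days' greenhouse growth at 25 to 30° C, plants are sprayed on stems and leaves with diluted emulsion at the stated g/ha rate, then scored at 3 weeks.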

green foxtail [26] = assay: Test Example 4: weedkilling efficacy by foliar treatment; E: green foxtail
In short: as §4

barnyard grass [27] = assay: Test Example 4: weedkilling efficacy by foliar treatment; F: barnyard grass
In short: as §4

wild oat [28] = assay: Test Example 4: weedkilling efficacy by foliar treatment; G: wild oat
In short: as §4

black-grass [29] = assay: Test Example 4: weedkilling efficacy by foliar treatment; H: black-grass
In short: as §4

Italian ryegrass [30] = assay: Test Example 4: weedkilling efficacy by foliar treatment; I: Italian ryegrass
In short: as §4

common wind-grass [31] = assay: Test Example 4: weedkilling efficacy by foliar treatment; J: common wind-grass
In short: as §4

Indian mallow [32] = assay: Test Example 4: weedkilling efficacy by foliar treatment; K: Indian mallow
In short: as §4

redroot pigweed [33] = assay: Test Example 4: weedkilling efficacy by foliar treatment; L: redroot pigweed
In short: as §4

fig-leafed goosefoot [34] = assay: Test Example 4: weedkilling efficacy by foliar treatment; M: fig-leafed goosefoot
In short: as §4

chickweed [35] = assay: Test Example 4: weedkilling efficacy by foliar treatment; N: chickweed
In short: as §4

catchweed = assay: Test Example 4: weedkilling efficacy by foliar treatment; O: catchweed
In short: as §4

birds-eye speedwell [36] = assay: Test Example 4: weedkilling efficacy by foliar treatment; p: birds-eye speedwell
In short: as §4

directly sown rice [37] = assay: Test Example 4: foliar treatment, effect on crop; b: directly sown rice
In short: as §4

corn [38] = assay: Test Example 4: foliar treatment, effect on crop; c: corn
In short: as §4

soybean [39] = assay: Test Example 4: foliar treatment, effect on crop; d: soybean
In short: as §4

wheat [40] = assay: Test Example 4: foliar treatment, effect on crop; e: wheat
In short: as §4

beet [41] = assay: Test Example 4: foliar treatment, effect on crop; f: beet
In short: as §4

rapeseed [42] = assay: Test Example 4: foliar treatment, effect on crop; g: rapeseed
In short: as §4

Q: How did the “A (barnyard grass) weedkilling efficacy grade” value (barnyard grass [1]) turn out when `COc1cc(F)nc(NC(=O)C(C)(C)N2COC(C)=C(c3ccccc3)C2=O)c1` [B-2-41] was run?
A: 5 (weed kill ratio 90% or more, (practically complete withering))

Q: What about the “B (bulrush) weedkilling efficacy grade” value (bulrush [2]) of the same molecule?
A: 5 (weed kill ratio 90% or more, (practically complete withering))

Q: And the “C (oval-leafed pondweed) weedkilling efficacy grade” value (oval-leafed pondweed [3])?
A: 5 (weed kill ratio 90% or more, (practically complete withering))

Q: What about the “a (transplanted rice) effect on crop grade” value (transplanted rice) of the same molecule?
A: 3 (weed kill ratio 40% or more, less than 70%)

Q: And the “A (barnyard grass) weedkilling efficacy grade” value (barnyard grass [4])?
A: 5 (weed kill ratio 90% or more, (practically complete withering))

Q: And the “B (bulrush) weedkilling efficacy grade” value (bulrush [5])?
A: 5 (weed kill ratio 90% or more, (practically complete withering))

Q: What about the “C (oval-leafed pondweed) weedkilling efficacy grade” value (oval-leafed pondweed [6]) of the same molecule?
A: 5 (weed kill ratio 90% or more, (practically complete withering))

Q: And the “D (crabgrass) weedkilling efficacy grade” value (crabgrass [7])?
A: 5 (weed kill ratio 90% or more, (practically complete withering))

Q: What about the “E (green foxtail) weedkilling efficacy grade” value (green foxtail [8]) of the same molecule?
A: 5 (weed kill ratio 90% or more, (practically complete withering))

Q: What about the “F (barnyard grass) weedkilling efficacy grade” value (barnyard grass [9]) of the same molecule?
A: 5 (weed kill ratio 90% or more, (practically complete withering))

Q: What about the “G (wild oat) weedkilling efficacy grade” value (wild oat [10]) of the same molecule?
A: 3 (weed kill ratio 40% or more, less than 70%)

Q: And the “H (black-grass) weedkilling efficacy grade” value (black-grass [11])?
A: 5 (weed kill ratio 90% or more, (practically complete withering))

Q: And the “I (Italian ryegrass) weedkilling efficacy grade” value (Italian ryegrass [12])?
A: 5 (weed kill ratio 90% or more, (practically complete withering))

Q: And the “J (common wind-grass) weedkilling efficacy grade” value (common wind-grass [13])?
A: 5 (weed kill ratio 90% or more, (practically complete withering))

Q: And the “K (Indian mallow) weedkilling efficacy grade” value (Indian mallow [14])?
A: 2 (weed kill ratio 20% or more, less than 40%)

Q: And the “L (redroot pigweed) weedkilling efficacy grade” value (redroot pigweed [15])?
A: 3 (weed kill ratio 40% or more, less than 70%)

Q: And the “M (fig-leafed goosefoot) weedkilling efficacy grade” value (fig-leafed goosefoot [16])?
A: 4 (weed kill ratio 70% or more, less than 90%)

Q: And the “N (chickweed) weedkilling efficacy grade” value (chickweed [17])?
A: 4 (weed kill ratio 70% or more, less than 90%)

Q: What about the “P (birds-eye speedwell) weedkilling efficacy grade” value (birds-eye speedwell [18]) of the same molecule?
A: 5 (weed kill ratio 90% or more, (practically complete withering))

Q: And the “b (directly sown rice) effect on crop grade” value (directly sown rice [19])?
A: 4 (weed kill ratio 70% or more, less than 90%)

Q: What about the “c (corn) effect on crop grade” value (corn [20]) of the same molecule?
A: 0 (weed kill ratio 5% or less (practically no effect))

Q: And the “d (soybean) effect on crop grade” value (soybean [21])?
A: 0 (weed kill ratio 5% or less (practically no effect))

Q: What about the “e (wheat) effect on crop grade” value (wheat [22]) of the same molecule?
A: 0 (weed kill ratio 5% or less (practically no effect))

Q: And the “f (beet) effect on crop grade” value (beet [23])?
A: 3 (weed kill ratio 40% or more, less than 70%)

Q: And the “g (rapeseed) effect on crop grade” value (rapeseed [24])?
A: 4 (weed kill ratio 70% or more, less than 90%)

Q: And the “D (crabgrass) weedkilling efficacy grade” value (crabgrass [25])?
A: 5 (weed kill ratio 90% or more, (practically complete withering))

Q: What about the “E (green foxtail) weedkilling efficacy grade” value (green foxtail [26]) of the same molecule?
A: 5 (weed kill ratio 90% or more, (practically complete withering))

Q: What about the “F (barnyard grass) weedkilling efficacy grade” value (barnyard grass [27]) of the same molecule?
A: 5 (weed kill ratio 90% or more, (practically complete withering))

Q: What about the “G (wild oat) weedkilling efficacy grade” value (wild oat [28]) of the same molecule?
A: 3 (weed kill ratio 40% or more, less than 70%)

Q: And the “H (black-grass) weedkilling efficacy grade” value (black-grass [29])?
A: 5 (weed kill ratio 90% or more, (practically complete withering))

Q: What about the “I (Italian ryegrass) weedkilling efficacy grade” value (Italian ryegrass [30]) of the same molecule?
A: 5 (weed kill ratio 90% or more, (practically complete withering))

Q: What about the “J (common wind-grass) weedkilling efficacy grade” value (common wind-grass [31]) of the same molecule?
A: 5 (weed kill ratio 90% or more, (practically complete withering))

Q: What about the “K (Indian mallow) weedkilling efficacy grade” value (Indian mallow [32]) of the same molecule?
A: 5 (weed kill ratio 90% or more, (practically complete withering))

Q: And the “L (redroot pigweed) weedkilling efficacy grade” value (redroot pigweed [33])?
A: 4 (weed kill ratio 70% or more, less than 90%)

Q: What about the “M (fig-leafed goosefoot) weedkilling efficacy grade” value (fig-leafed goosefoot [34]) of the same molecule?
A: 3 (weed kill ratio 40% or more, less than 70%)

Q: What about the “N (chickweed) weedkilling efficacy grade” value (chickweed [35]) of the same molecule?
A: 4 (weed kill ratio 70% or more, less than 90%)

Q: What about the “O (catchweed) weedkilling efficacy grade” value (catchweed) of the same molecule?
A: 5 (weed kill ratio 90% or more, (practically complete withering))

Q: And the “P (birds-eye speedwell) weedkilling efficacy grade” value (birds-eye speedwell [36])?
A: 5 (weed kill ratio 90% or more, (practically complete withering))

Q: What about the “b (directly sown rice) effect on crop grade” value (directly sown rice [37]) of the same molecule?
A: 4 (weed kill ratio 70% or more, less than 90%)

Q: And the “c (corn) effect on crop grade” value (corn [38])?
A: 4 (weed kill ratio 70% or more, less than 90%)

Q: What about the “d (soybean) effect on crop grade” value (soybean [39]) of the same molecule?
A: 4 (weed kill ratio 70% or more, less than 90%)

Q: What about the “e (wheat) effect on crop grade” value (wheat [40]) of the same molecule?
A: 0 (weed kill ratio 5% or less (practically no effect))

Q: What about the “f (beet) effect on crop grade” value (beet [41]) of the same molecule?
A: 4 (weed kill ratio 70% or more, less than 90%)

Q: What about the “g (rapeseed) effect on crop grade” value (rapeseed [42]) of the same molecule?
A: 5 (weed kill ratio 90% or more, (practically complete withering))
